# Laboratory results taken from PubChem BioAssay (NCI).
#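 Values below derive from 48-hour exposures of cells grown in 96-well plates, with endpoints linearly interpolated between the two concentrations bracketing the appropriate inhibition level. GI50 marks 50% less growth. TGI denotes the concentration required for complete inhibition of growth.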
# Tests used:
# Experiment in all cases: NCI-60 cell line screen, 48 h
# SNB-19 CNS = tested on: SNB-19 CNS
# SN12C renal = tested on: SN12C renal
# MDA-MB-435 = tested on: MDA-MB-435
# U251 CNS = tested on: U251 CNS
# SR leukemia = tested on: SR leukemia
# TK-10 renal = tested on: TK-10 renal
# M14 melanoma = tested on: M14 melanoma
# SK-OV-3 ovarian = tested on: SK-OV-3 ovarian
# OVCAR-8 ovarian = tested on: OVCAR-8 ovarian
# MDA-MB-231 breast = tested on: MDA-MB-231 breast
# UO-31 renal = tested on: UO-31 renal
# SK-MEL-5 melanoma = tested on: SK-MEL-5 melanoma
# HOP-92 NSCLC = tested on: HOP-92 NSCLC
# DU-145 prostate = tested on: DU-145 prostate
# IGROV1 ovarian = tested on: IGROV1 ovarian
# SF-268 CNS = tested on: SF-268 CNS
# UACC-62 melanoma = tested on: UACC-62 melanoma
# HL-60(TB) leukemia = tested on: HL-60(TB) leukemia
# SK-MEL-2 melanoma = tested on: SK-MEL-2 melanoma
# ACHN renal = tested on: ACHN renal
# 786-0 renal = tested on: 786-0 renal
# RPMI-8226 leukemia = tested on: RPMI-8226 leukemia
# KM12 colon = tested on: KM12 colon
# SF-539 CNS = tested on: SF-539 CNS
# EKVX NSCLC = tested on: EKVX NSCLC
# T-47D breast = tested on: T-47D breast
# NCI-H522 lung = tested on: NCI-H522 lung
# HS 578T breast = tested on: HS 578T breast
# PC-3 prostate = tested on: PC-3 prostate
# MCF7 breast = tested on: MCF7 breast
# NCI/ADR-RES ovarian = tested on: NCI/ADR-RES ovarian
# OVCAR-5 ovarian = tested on: OVCAR-5 ovarian
# CAKI-1 renal = tested on: CAKI-1 renal
# SF-295 CNS = tested on: SF-295 CNS
# BT-549 breast = tested on: BT-549 breast
# COLO 205 colon = tested on: COLO 205 colon
# OVCAR-3 ovarian = tested on: OVCAR-3 ovarian
# NCI-H23 lung = tested on: NCI-H23 lung
# NCI-H460 lung = tested on: NCI-H460 lung
# K-562 leukemia = tested on: K-562 leukemia
# HCT-15 colon = tested on: HCT-15 colon
# SW-620 colon = tested on: SW-620 colon
# LOX IMVI melanoma = tested on: LOX IMVI melanoma
# UACC-257 melanoma = tested on: UACC-257 melanoma
# HOP-62 NSCLC = tested on: HOP-62 NSCLC
# A549 NSCLC = tested on: A549 NSCLC
# HCT-116 colon = tested on: HCT-116 colon
smiles,measurement,setting,value
N#CC1=C(N)NC(=S)NC1c1ccc(-c2ccc(-c3nc4ccccc4s3)cc2)o1 (centres undefined),GI50,SNB-19 CNS,> 50 µM
same,TGI,SNB-19 CNS,> 50 µM
same,GI50,SN12C renal,> 50 µM
same,TGI,SN12C renal,> 50 µM
same,GI50,MDA-MB-435,39.1 µM
same,TGI,MDA-MB-435,> 50 µM
same,GI50,U251 CNS,11.8 µM
same,TGI,U251 CNS,32.2 µM
same,GI50,SR leukemia,11.3 µM
same,TGI,SR leukemia,25.7 µM
same,GI50,TK-10 renal,37.9 µM
same,TGI,TK-10 renal,> 50 µM
same,GI50,M14 melanoma,20.8 µM
same,TGI,M14 melanoma,> 50 µM
same,GI50,SK-OV-3 ovarian,> 50 µM
same,TGI,SK-OV-3 ovarian,> 50 µM
same,GI50,OVCAR-8 ovarian,35.1 µM
same,TGI,OVCAR-8 ovarian,> 50 µM
same,GI50,MDA-MB-231 breast,16.3 µM
same,TGI,MDA-MB-231 breast,> 50 µM
same,GI50,UO-31 renal,> 50 µM
same,TGI,UO-31 renal,> 50 µM
same,GI50,SK-MEL-5 melanoma,14.6 µM
same,TGI,SK-MEL-5 melanoma,39.4 µM
same,GI50,HOP-92 NSCLC,> 50 µM
same,TGI,HOP-92 NSCLC,> 50 µM
same,GI50,DU-145 prostate,42.3 µM
same,TGI,DU-145 prostate,> 50 µM
same,GI50,IGROV1 ovarian,32.1 µM
same,TGI,IGROV1 ovarian,> 50 µM
same,GI50,SF-268 CNS,28.9 µM
same,TGI,SF-268 CNS,> 50 µM
same,GI50,UACC-62 melanoma,16.1 µM
same,TGI,UACC-62 melanoma,> 50 µM
same,GI50,HL-60(TB) leukemia,30.7 µM
same,TGI,HL-60(TB) leukemia,> 50 µM
same,GI50,SK-MEL-2 melanoma,41 µM
same,TGI,SK-MEL-2 melanoma,> 50 µM
same,GI50,ACHN renal,28.1 µM
same,TGI,ACHN renal,> 50 µM
same,GI50,786-0 renal,> 50 µM
same,TGI,786-0 renal,> 50 µM
same,GI50,RPMI-8226 leukemia,32.8 µM
same,TGI,RPMI-8226 leukemia,> 50 µM
same,GI50,KM12 colon,17 µM
same,TGI,KM12 colon,> 50 µM
same,GI50,SF-539 CNS,15.2 µM
same,TGI,SF-539 CNS,31.7 µM
same,GI50,EKVX NSCLC,> 50 µM
same,TGI,EKVX NSCLC,> 50 µM
same,GI50,T-47D breast,43.2 µM
same,TGI,T-47D breast,> 50 µM
same,GI50,NCI-H522 lung,40.3 µM
same,TGI,NCI-H522 lung,> 50 µM
same,GI50,HS 578T breast,> 50 µM
same,TGI,HS 578T breast,> 50 µM
same,GI50,PC-3 prostate,31.2 µM
same,TGI,PC-3 prostate,> 50 µM
same,GI50,MCF7 breast,9.71 µM
same,TGI,MCF7 breast,> 50 µM
same,GI50,NCI/ADR-RES ovarian,> 50 µM
same,TGI,NCI/ADR-RES ovarian,> 50 µM
same,GI50,OVCAR-5 ovarian,> 50 µM
same,TGI,OVCAR-5 ovarian,> 50 µM
same,GI50,CAKI-1 renal,35.3 µM
same,TGI,CAKI-1 renal,> 50 µM
same,GI50,SF-295 CNS,26.9 µM
same,TGI,SF-295 CNS,> 50 µM
same,GI50,BT-549 breast,21.7 µM
same,TGI,BT-549 breast,> 50 µM
same,GI50,COLO 205 colon,17.4 µM
same,TGI,COLO 205 colon,> 50 µM
same,GI50,OVCAR-3 ovarian,> 50 µM
same,TGI,OVCAR-3 ovarian,> 50 µM
same,GI50,NCI-H23 lung,33.2 µM
same,TGI,NCI-H23 lung,> 50 µM
same,GI50,NCI-H460 lung,10.4 µM
same,TGI,NCI-H460 lung,25.2 µM
same,GI50,K-562 leukemia,9.98 µM
same,TGI,K-562 leukemia,22 µM
same,GI50,HCT-15 colon,17.5 µM
same,TGI,HCT-15 colon,> 50 µM
same,GI50,SW-620 colon,37.5 µM
same,TGI,SW-620 colon,> 50 µM
same,GI50,LOX IMVI melanoma,10.6 µM
same,TGI,LOX IMVI melanoma,22.8 µM
same,GI50,UACC-257 melanoma,36.9 µM
same,TGI,UACC-257 melanoma,> 50 µM
same,GI50,HOP-62 NSCLC,> 50 µM
same,TGI,HOP-62 NSCLC,> 50 µM
same,GI50,A549 NSCLC,31.6 µM
same,TGI,A549 NSCLC,> 50 µM
same,GI50,HCT-116 colon,13 µM
same,TGI,HCT-116 colon,31.8 µM
